Experiments:
Test in all cases: relative viability (nuclei count vs DMSO), 5 days (fraction); higher = more cells survive
[1] = compound: CC1=CC=C(C=C1)C(=O)CN2C3=C(CCCC3)SC2=N [Pifithrin_alpha] + O=C(CCCCCCC(=O)Nc1ccccc1)NO [Vorinostat] (partner 1 µM)
Summary of the method: (§1)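 One day after seeding in 1536-well plates, lung cancer cell lines were dosed by pin tool. Dosing was either single-drug or a fixed anchor-drug dose plus five library-drug doses (not always all listed) in √10 steps. After 5 days, nuclei were stained in one fix-and-stain step and counted on 4× images, and relative viability is the nuclei count of treated wells over that of vehicle wells, given as the median of duplicate plates.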

[2] = compound: CNC(=O)c1ccccc1Sc1ccc2c(/C=C/c3ccccn3)n[nH]c2c1 [Axitinib] + O=C(CCCCCCC(=O)Nc1ccccc1)NO [Vorinostat] (partner 1 µM)
Summary of the method: as §1

[3] = compound: CC1=CC=C(C=C1)C(=O)CN2C3=C(CCCC3)SC2=N [Pifithrin_alpha] + CC1(C)CCC(c2ccc(Cl)cc2)=C(CN2CCN(c3ccc(C(=O)NS(=O)(=O)c4ccc(N[C@H](CCN5CCOCC5)CSc5ccccc5)c(S(=O)(=O)C(F)(F)F)c4)cc3)CC2)C1 [Navitoclax] (partner 0.5 µM)
Summary of the method: as §1

Cell Line	relative viability ([1]; first compound 1 µM)	relative viability ([1]; first compound 3.162 µM)	relative viability ([1]; first compound 10 µM)	relative viability ([1]; first compound 31.62 µM)	relative viability ([1]; first compound 100 µM)	relative viability ([2]; first compound 0.005 µM)	relative viability ([2]; first compound 0.01581 µM)	relative viability ([2]; first compound 0.05 µM)	relative viability ([2]; first compound 0.1581 µM)	relative viability ([2]; first compound 0.5 µM)	relative viability ([3]; first compound 1 µM)	relative viability ([3]; first compound 3.162 µM)	relative viability ([3]; first compound 10 µM)	relative viability ([3]; first compound 31.62 µM)	relative viability ([3]; first compound 100 µM)
NCI-H1651	0.148	0.553	0.476	0.533	0.563	0.563	0.542	0.537	0.548	0.59	1.05	1.06	0.924	0.604	0.865
NCI-H1666	0.96	0.962	0.723	0.771	0.793	1.07	1.14	1.02	1.09	1.11	0.84	0.61	0.432	0.635	0.354
NCI-H1734	0.715	0.776	0.773	0.537	0.75	0.787	0.891	0.865	0.903	0.964	0.892	0.95	0.796	0.745	0.734
NCI-H1755	0.773	0.853	0.694	0.599	0.724	0.77	0.8	0.797	0.714	0.572	0.935	0.973	0.888	0.628	0.966
NCI-H1793	0.674	0.571	0.655	0.753	0.46	0.955	0.679	0.693	0.637	0.678	0.395	0.282	0.382	0.339	0.339
NCI-H1915	0.456	0.527	0.418	–	0.543	0.552	0.516	0.508	0.536	0.517	0.791	0.793	0.788	–	0.801
NCI-H1944	0.503	0.572	0.505	0.351	0.395	0.616	0.54	0.585	0.498	0.518	1.11	1.04	0.946	–	1.02
NCI-H1975	0.626	0.708	0.579	0.54	0.529	0.704	0.729	0.715	0.644	0.733	0.918	0.848	0.621	0.616	0.686
NCI-H1993	0.771	0.607	0.754	0.627	0.793	0.826	0.835	0.734	0.722	0.876	–	0.79	0.594	0.718	0.639
NCI-H2009	0.697	0.715	0.601	0.399	0.57	0.732	0.783	0.736	0.716	0.821	1.24	1.1	1.05	0.784	0.957
NCI-H2023	0.726	0.577	0.545	0.334	0.464	0.545	0.604	0.607	0.557	0.796	0.914	0.968	0.8	0.676	0.822
NCI-H2085	0.648	0.737	0.71	0.616	0.623	0.823	0.788	0.883	0.758	0.812	1.06	1.22	1.08	0.876	1.04
NCI-H2087	0.777	0.877	0.968	0.672	0.618	0.618	0.626	0.741	0.699	0.936	0.948	1.04	0.998	0.742	0.715
NCI-H2126	0.433	0.719	0.738	0.716	0.763	0.828	0.819	0.801	0.8	0.724	0.787	0.8	0.73	0.738	0.771
NCI-H2170	0.791	0.873	0.837	0.681	0.842	0.898	0.85	0.896	0.739	0.799	0.557	0.512	0.576	0.494	0.535
NCI-H2228	0.831	0.663	0.721	0.387	0.374	0.818	0.618	0.605	0.506	0.885	0.88	0.839	0.804	0.599	0.729
NCI-H2347	0.541	0.533	0.685	0.459	0.536	0.638	0.55	0.513	0.664	0.619	0.695	0.87	0.786	0.551	0.814
NCI-H2405	–	0.931	0.743	0.734	0.785	1.01	1.03	1.18	0.953	1.13	–	0.81	0.813	0.635	0.689
NCI-H3122	0.878	0.978	1.03	0.828	0.898	0.914	1.06	1.05	0.888	1.02	1.03	1.02	1.03	0.845	1.05
PC-3 [JPC-3]	–	0.61	–	0.609	0.639	0.787	–	0.94	0.758	0.857	0.749	0.74	0.746	0.789	0.726
PC-14	0.626	0.77	0.802	0.414	0.625	0.792	0.336	0.702	0.643	1.06	1.01	0.988	0.988	0.881	0.847
RERF-LC-KJ	0.329	0.627	0.547	0.448	0.488	0.703	0.648	0.725	0.705	0.803	0.591	0.619	0.5	0.824	0.412
SK-LU-1	0.94	0.862	0.774	0.676	0.75	0.805	0.835	0.808	0.817	0.959	1.07	1.07	1.07	0.626	0.823
SK-MES-1	1.01	0.95	0.959	0.591	0.852	1.1	1.12	1.25	1.02	1.27	1.19	1.17	1.16	0.829	0.924
SW 1573	–	0.787	0.719	0.498	0.82	0.735	0.789	0.985	0.741	0.783	1.06	1.03	1.18	0.923	0.893
UMC-11	0.342	0.382	0.343	0.245	0.256	0.323	0.339	0.401	0.408	0.36	0.288	0.312	0.312	0.337	0.331
